pIC50, pKi: −log10 of the molar value. “And” between values parts separate entries of the source, which are not always exact repeats. Equal values may be shown once. Read-outs that look alike come from different tables or passages of the source. Some results are limits rather than exact numbers.

For one test, the target named is 5-HT2C (Homo sapiens (Human), UniProt P28335). The test is described as follows: HTRF IP-One antagonist assay, 5-HT2C.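 Note: clonal HEK293 line with low 5-HT2C density (10–20 fmol/mg), HTRF detection of IP-One, 10-point dose curves from 10 µM in 5-fold steps, triplicate points.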 The note with it: HEK293 cells stably expressing receptor, inositol phosphate accumulation, 80 nM 5-HT in Assay Buffer. The class given is cell-based. For orientation: In TR-FRET formats the signal depends on donor and acceptor labels being close together.
5-HT2C, sequence (P28335 33-458): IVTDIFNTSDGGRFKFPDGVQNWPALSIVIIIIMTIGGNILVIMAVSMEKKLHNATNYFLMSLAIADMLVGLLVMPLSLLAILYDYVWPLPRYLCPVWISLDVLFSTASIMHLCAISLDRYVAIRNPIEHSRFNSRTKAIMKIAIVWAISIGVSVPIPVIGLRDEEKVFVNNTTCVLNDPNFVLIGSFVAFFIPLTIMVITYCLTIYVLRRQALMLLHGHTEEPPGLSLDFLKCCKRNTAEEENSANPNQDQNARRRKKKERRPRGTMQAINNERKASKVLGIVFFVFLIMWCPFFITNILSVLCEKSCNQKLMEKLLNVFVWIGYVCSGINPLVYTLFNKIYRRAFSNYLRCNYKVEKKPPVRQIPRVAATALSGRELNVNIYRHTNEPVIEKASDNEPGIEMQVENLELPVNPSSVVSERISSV

In test [1] the target is T1, 5-HT2A (Homo sapiens (Human), UniProt P28223). The test can be described thus: HTRF IP-One antagonist assay, 5-HT2A.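 Note: clonal line with low receptor density (about 50–70 fmol/mg), 10-point dose-response from 10 µM in 5-fold steps, HTRF detection after 1 hr, triplicate points.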 The note with it: HEK293 cells stably expressing receptor, inositol phosphate accumulation, 80 nM 5-HT in Assay Buffer. The class given is cell-based.
T1 sequence (P28223 whole entry): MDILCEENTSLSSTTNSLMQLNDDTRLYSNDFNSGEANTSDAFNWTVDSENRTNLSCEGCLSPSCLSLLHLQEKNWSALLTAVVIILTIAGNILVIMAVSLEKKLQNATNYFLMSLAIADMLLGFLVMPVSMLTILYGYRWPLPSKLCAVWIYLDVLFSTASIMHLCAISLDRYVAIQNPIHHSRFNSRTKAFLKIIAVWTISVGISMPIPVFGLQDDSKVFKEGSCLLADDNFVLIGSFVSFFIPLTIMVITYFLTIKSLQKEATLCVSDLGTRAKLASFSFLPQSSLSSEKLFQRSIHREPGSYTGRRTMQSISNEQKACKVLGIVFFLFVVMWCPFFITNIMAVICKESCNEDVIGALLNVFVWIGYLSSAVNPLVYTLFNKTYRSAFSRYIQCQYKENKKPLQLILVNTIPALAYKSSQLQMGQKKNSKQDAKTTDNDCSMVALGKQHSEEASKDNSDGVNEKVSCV
The target of test [2] is T1, 5-HT2A. The test can be described thus: Radioligand binding assay, [^3H]5-HT competition, 5-HT2A. The settings on record: read-out: 5-HT2A serotonin binding Ki value.
In another test the target is 5-HT2B (Homo sapiens (Human), UniProt P41595). The test can be described thus: HTRF IP-One antagonist assay, 5-HT2B.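 Note: clonal HEK293 line with low 5-HT2B expression (estimated 150-200 fmol/mg by radioligand binding), IP-One HTRF readout, 10-point curves from 10 µM in 5-fold steps, triplicate points.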 In kind it is cell-based. The note with it: HEK293 cells stably expressing receptor, inositol phosphate accumulation, 80 nM 5-HT in Assay Buffer.
5-HT2B, sequence (P41595 whole entry): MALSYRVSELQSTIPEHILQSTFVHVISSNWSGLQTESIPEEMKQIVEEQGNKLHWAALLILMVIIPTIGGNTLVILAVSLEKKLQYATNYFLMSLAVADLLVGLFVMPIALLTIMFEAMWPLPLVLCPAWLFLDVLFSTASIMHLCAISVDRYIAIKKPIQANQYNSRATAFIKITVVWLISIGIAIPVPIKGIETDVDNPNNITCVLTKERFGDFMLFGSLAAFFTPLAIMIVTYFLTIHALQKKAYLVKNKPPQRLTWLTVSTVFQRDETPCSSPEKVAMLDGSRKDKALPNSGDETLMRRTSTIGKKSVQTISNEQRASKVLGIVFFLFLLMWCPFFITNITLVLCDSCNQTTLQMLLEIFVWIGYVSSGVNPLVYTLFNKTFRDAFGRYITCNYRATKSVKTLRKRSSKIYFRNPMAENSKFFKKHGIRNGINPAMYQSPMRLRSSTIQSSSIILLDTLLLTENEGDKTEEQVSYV
Where [3] appears, read: [^3H]5-HT radioligand, membranes of HEK293 cells expressing recombinant 5-HT2A, Ki from IC50 by Cheng-Prusoff.

On to `Cc1ncnc(C)c1-c1cc(NC(=O)C2CC2)ccc1OCCN1CCCC1` [Compound 245, N-[3-(4,6-dimethylpyrimidin-5-yl)-4-(2-pyrrolidin-1-ylethoxy)phenyl]cyclopropanecarboxamide], for which the pIC50 was 4.00 at 5-HT2C, 8.02 at 5-HT2A [1] and 4.00 at 5-HT2B. For the same molecule, at 5-HT2A [2] (setting [3]), the pKi was 8.37.

Regarding `Cc1ncnc(C)c1-c1cc(NC(=O)Cc2cncs2)ccc1OCCN1CCCC1` [Compound 247, N-[3-(4,6-dimethylpyrimidin-5-yl)-4-(2-pyrrolidin-1-ylethoxy)phenyl]-2-thiazol-5-yl-acetamide], the pIC50 against 5-HT2C was 4.00; against 5-HT2A [1] it was 7.97; at 5-HT2B, 4.00. Moreover, the pKi on 5-HT2A [2] (setting [3]) was 8.35.

Take `Cc1ncsc1CC(=O)Nc1ccc(OCCN2CCCC2)c(-c2c(C)ncnc2C)c1` [Compound 250, N-(3-(4,6-dimethylpyrimidin-5-yl)-4-(2-(pyrrolidin-1-yl)ethoxy)phenyl)-2-(4-methylthiazol-5-yl)acetamide]: the pIC50 was 4.00 at 5-HT2C, 7.86 against 5-HT2A [1] and 4.00 at 5-HT2B. Besides, the pKi on 5-HT2A [2] (setting [3]) was 8.04.

Regarding `Cc1ncnc(C)c1-c1cc(NC(=O)CCc2nccs2)ccc1OCCN1CCCC1` [Compound 256, N-(3-(4,6-dimethylpyrimidin-5-yl)-4-(2-(pyrrolidin-1-yl)ethoxy)phenyl)-3-(thiazol-2-yl)propanamide], the pIC50 was 4.00 against 5-HT2C, 7.25 on 5-HT2A [1] and 4.00 on 5-HT2B. Moreover, the pKi at 5-HT2A [2] (setting [3]) was 8.00.

As for `Cc1ncnc(C)c1-c1cc(NC(=O)CCc2cncs2)ccc1OCCN1CCCC1` [Compound 257, N-(3-(4,6-dimethylpyrimidin-5-yl)-4-(2-(pyrrolidin-1-yl)ethoxy)phenyl)-3-(thiazol-5-yl)propanamide], the pIC50 was 4.00 against 5-HT2C, 7.47 on 5-HT2A [1] and 4.00 against 5-HT2B. Moreover, the pKi at 5-HT2A [2] (setting [3]) was 7.83.

Regarding `Cc1ncnc(C)c1-c1cc(NC(=O)Cc2ccno2)ccc1OCCN1CCCC1` [Compound 263, N-(3-(4,6-dimethylpyrimidin-5-yl)-4-(2-(pyrrolidin-1-yl)ethoxy)phenyl)-2-(isoxazol-5-yl)acetamide], the pIC50 is 4.00 at 5-HT2C, 7.44 at 5-HT2A [1] and 4.00 on 5-HT2B. The pKi on 5-HT2A [2] (setting [3]) is 8.00.

`Cc1ncc(CC(=O)Nc2ccc(OCCN3CCCC3)c(-c3c(C)ncnc3C)c2)s1` [Compound 266, N-(3-(4,6-dimethylpyrimidin-5-yl)-4-(2-(pyrrolidin-1-yl)ethoxy)phenyl)-2-(2-methylthiazol-5-yl)acetamide]: the pIC50 against 5-HT2C is 4.00; against 5-HT2A [1], 8.28; on 5-HT2B, 4.00. At 5-HT2A [2] (setting [3]), the pKi was 8.39.

Consider `Cc1ncnc(C)c1-c1cc(NC(=O)Cc2ccn(C)c2)ccc1OCCN1CCCC1` [Compound 268, N-[3-(4,6-dimethylpyrimidin-5-yl)-4-(2-pyrrolidin-1-ylethoxy)phenyl]-2-(1-methylpyrrol-3-yl)acetamide], for which the pIC50 is 4.00 on 5-HT2C, 7.20 against 5-HT2A [1] and 4.00 against 5-HT2B. The pKi on 5-HT2A [2] (setting [3]) was 8.11.

`Cc1ncnc(C)c1-c1cc(NC(=O)c2ccccc2)ccc1OCCN1CCCC1` [Compound 271, N-[3-(4,6-dimethylpyrimidin-5-yl)-4-(2-pyrrolidin-1-ylethoxy)phenyl]benzamide]: the pIC50 is 4.00 against 5-HT2C, 8.21 against 5-HT2A [1] and 4.00 on 5-HT2B. Also, the pKi at 5-HT2A [2] (setting [3]) is 8.49.

Consider `Cc1ncnc(C)c1-c1cc(NC(=O)c2ccc(F)cc2)ccc1OCCN1CCCC1` [Compound 272, N-(3-(4,6-dimethylpyrimidin-5-yl)-4-(2-(pyrrolidin-1-yl)ethoxy)phenyl)-4-fluorobenzamide], for which the figures for the pIC50 against 5-HT2C, on 5-HT2A [1] and on 5-HT2B were 4.00, 8.11 and 5.57, respectively. The pKi on 5-HT2A [2] (setting [3]) is 8.61.

Take `Cc1ncnc(C)c1-c1cc(NC(=O)Cc2cccc(F)c2)ccc1OCCN1CCCC1` [Compound 275, N-(3-(4,6-dimethylpyrimidin-5-yl)-4-(2-(pyrrolidin-1-yl)ethoxy)phenyl)-2-(3-fluorophenyl)acetamide]: the pIC50 is 4.00 against 5-HT2C, 8.20 at 5-HT2A [1] and 4.00 at 5-HT2B. At 5-HT2A [2] (setting [3]), the pKi is 8.77.

For `COc1ccc(CC(=O)Nc2ccc(OCCN3CCCC3)c(-c3c(C)ncnc3C)c2)cc1` [Compound 276, N-(3-(4,6-dimethylpyrimidin-5-yl)-4-(2-(pyrrolidin-1-yl)ethoxy)phenyl)-2-(4-methoxyphenyl)acetamide], the pIC50 is 4.00 against 5-HT2C, 8.51 on 5-HT2A [1] and 4.00 against 5-HT2B. In addition, the pKi on 5-HT2A [2] (setting [3]) was 9.07.

As to `Cc1ncnc(C)c1-c1cc(NC(=O)c2c(F)cnn2C)ccc1OCCN1CCCC1` [Compound 290, N-[3-(4,6-dimethylpyrimidin-5-yl)-4-(2-pyrrolidin-1-ylethoxy)phenyl]-4-fluoro-2-methyl-pyrazole-3-carboxamide], the pIC50 against 5-HT2C is 4.00; against 5-HT2A [1] it was 8.13; at 5-HT2B, 4.00. Also, at 5-HT2A [2] (setting [3]), the pKi is 8.41.

As for `CCOC1CC1C(=O)Nc1ccc(OCCN2CCCC2)c(-c2c(C)ncnc2C)c1` (stereo not drawn) [Compound 291, N-(3-(4,6-dimethylpyrimidin-5-yl)-4-(2-(pyrrolidin-1-yl)ethoxy)phenyl)-2-ethoxycyclopropane-1-carboxamide], the pIC50 against 5-HT2C was 4.00; at 5-HT2A [1], 8.01; against 5-HT2B, 4.00. In addition, the pKi on 5-HT2A [2] (setting [3]) is 8.30 and 7.81.

With `Cc1ncnc(C)c1-c1cc(NC(=O)C2(CF)CC2)ccc1OCCN1CCCC1` [Compound 293, N-(3-(4,6-dimethylpyrimidin-5-yl)-4-(2-(pyrrolidin-1-yl)ethoxy)phenyl)-1-(fluoromethyl)cyclopropane-1-carboxamide], the pIC50 against 5-HT2C was 4.00; against 5-HT2A [1] it was 7.80; at 5-HT2B, 5.03. Besides, the pKi on 5-HT2A [2] (setting [3]) was 8.07.

Turning to `Cc1ncnc(C)c1-c1cc(NC(=O)c2ccnn2C)ccc1OCCN1CCC1` [Compound 304, N-[4-[2-(azetidin-1-yl)ethoxy]-3-(4,6-dimethylpyrimidin-5-yl)phenyl]-2-methyl-pyrazole-3-carboxamide], the pIC50 against 5-HT2C was 4.00; against 5-HT2A [1], 8.05; against 5-HT2B, 4.00. The pKi at 5-HT2A [2] (setting [3]) is 8.14.

Consider `Cc1ncnc(C)c1-c1cc(NC(=O)C2(F)CC2)ccc1OCCN1CCC1` [Compound 305, N-(4-(2-(azetidin-1-yl)ethoxy)-3-(4,6-dimethylpyrimidin-5-yl)phenyl)-1-fluorocyclopropane-1-carboxamide], for which the values for the pIC50 on 5-HT2C, at 5-HT2A [1] and at 5-HT2B were 4.00, 8.35 and 4.00, respectively. The pKi on 5-HT2A [2] (setting [3]) was 8.58.

For `Cc1ncsc1CC(=O)Nc1ccc(OCCN2CCC2)c(-c2c(C)ncnc2C)c1` [Compound 307, N-(4-(2-(azetidin-1-yl)ethoxy)-3-(4,6-dimethylpyrimidin-5-yl)phenyl)-2-(4-methylthiazol-5-yl)acetamide], the results for the pIC50 against 5-HT2C, on 5-HT2A [1] and against 5-HT2B were 4.00, 8.01 and not above 4.00, respectively. For the same molecule, on 5-HT2A [2], the pKi was 8.23.

On to `Cc1ncnc(C)c1-c1cc(NC(=O)c2ccccc2)ccc1OCCN1CCC1` [Compound 308, N-(4-(2-(azetidin-1-yl)ethoxy)-3-(4,6-dimethylpyrimidin-5-yl)phenyl)benzamide], for which the pIC50 against 5-HT2C is 4.00; on 5-HT2A [1], 7.83; against 5-HT2B, 4.00. Moreover, the pKi on 5-HT2A [2] (setting [3]) is 8.48.

`Cc1ncnc(C)c1-c1cc(NC(=O)c2ccc(F)cc2)ccc1OCCN1CCC1` [Compound 309, N-(4-(2-(azetidin-1-yl)ethoxy)-3-(4,6-dimethylpyrimidin-5-yl)phenyl)-4-fluorobenzamide]: the results for the pIC50 against 5-HT2C, against 5-HT2A [1] and on 5-HT2B were 4.00, 8.20 and 6.09, respectively. Besides, the pKi on 5-HT2A [2] (setting [3]) is 8.77.

Regarding `COc1cccc(C(=O)Nc2ccc(OCCN3CCC3)c(-c3c(C)ncnc3C)c2)c1` [Compound 310, N-(4-(2-(azetidin-1-yl)ethoxy)-3-(4,6-dimethylpyrimidin-5-yl)phenyl)-3-methoxybenzamide], the pIC50 at 5-HT2C is 4.00; at 5-HT2A [1], 8.48; at 5-HT2B it was 5.72. In addition, at 5-HT2A [2] (setting [3]), the pKi is 8.80.

`Cc1ncnc(C)c1-c1cc(NC(=O)Cc2cncc(F)c2)ccc1OCCN1CCC1` [Compound 314, N-(4-(2-(azetidin-1-yl)ethoxy)-3-(4,6-dimethylpyrimidin-5-yl)phenyl)-2-(5-fluoropyridin-3-yl)acetamide]: the pIC50 at 5-HT2C was 4.00; on 5-HT2A [1], 7.82; against 5-HT2B, 4.00. Moreover, the pKi at 5-HT2A [2] (setting [3]) was 8.27.

For the molecule `Cc1ncnc(C)c1-c1cc(NC(=O)c2c(F)cnn2C)ccc1OCCN1CCC1` [Compound 316, N-(4-(2-(azetidin-1-yl)ethoxy)-3-(4,6-dimethylpyrimidin-5-yl)phenyl)-4-fluoro-1-methyl-1H-pyrazole-5-carboxamide], the pIC50 against 5-HT2C is 4.00; against 5-HT2A [1] it was 8.16; against 5-HT2B, 5.50. For the same molecule, the pKi on 5-HT2A [2] (setting [3]) is 8.30.

On to `COc1ccc(C(=O)Nc2ccc(OCCN3CCC3)c(-c3c(C)ncnc3C)c2)cc1` [Compound 318, N-(4-(2-(azetidin-1-yl)ethoxy)-3-(4,6-dimethylpyrimidin-5-yl)phenyl)-4-methoxybenzamide], for which the pIC50 was 4.00 against 5-HT2C, 7.77 against 5-HT2A [1] and 5.35 against 5-HT2B. Moreover, the pKi on 5-HT2A [2] (setting [3]) is 8.39.

Broadly, the pIC50 is the IC50 on a negative log10 scale, so that one unit is a factor of ten. Lower therefore signals a large IC50. A word on the pKi: it is the negative decadic logarithm of the Ki, by convention in mol/L.
